Laboratory results from patent US9120849B2 (priority 2000, dated 2015).
Where two headings read alike, the source gives them in different places.

Tests used:
HIV = conditions: for HIV p24 protein in culture supernatants: CEM cells
Description: This example describes one method of inactivation of the purified virus according to the invention by crosslinking of surface proteins. […] Titrations of the fixative were preformed above and below the concentration recommended by the CDC for inactivation of virus in biological fluids (May 8, 1992/41 (RR-8); 001 CDC Guidelines for the Performance of CD4+ T-Cell Determinations in Persons with Human Immunodeficiency Virus Infection). Initially, purified virus was slowly thawed at 2-8° C. for 6-8 hours to minimize lysis of the virus. Next, while on ice, virus was diluted with cold PBS to a final concentration of approximately 1×10^10 copies/mL (cp/mL). […] The reaction mixtures were then incubated at 2-8° C. for 60 minutes while gently rocking. […] After the addition of glycine the reactions were gently rocked for 2 hr. at 2-8° C. To remove glycine and any excess unquenched fixative each reaction mixture was then dialyzed (10-14K m.w. cutoff) against 1 L PBS (pH 7.4, 2-8° C.) for 4 changes. Dialyzed virus was then transferred into a 15 mL tube and centrifuged for 10 min. at 3,000×g to pellet any precipitated virus. A sample of each supernatant was then tested in cell culture for the presence of infectious virus.
The modified virus produced as described in Example 2 was tested to ensure the process inactivated the virus. As an illustration, the CEM cell line, obtained from the American Type Culture Collection was used as a host cell for viral infectivity studies. Advantages of using this line are that establishment of in vitro HIV infection requires relatively few virions and that the infection is chronic rather than lytic, facilitating analysis. For these studies, infection is detected and followed using the ZeptoMetrix HIV p24 Antigen EIA (ZeptoMetrix, Buffalo N.Y.).
CEM cells are cultured in RPMI-1640 containing 10% FBS in 24 well plates Cells are plated at 10^5 cells per well in a 1 ml volume and 100 ul of various dilutions of virus, either treated or untreated, are added to individual wells. Cultures are fed twice weekly by 50% media replacement and culture supernatants are assayed for HIV p24. All cultures initially contain HIV p24. However, in cultures where virus is noninfectious HIV p24 levels decrease over time eventually reaching background levels.
Different dilutions (1:8,000, 1:80,000, and 1:800,000) of treated virus were then placed into cultures of CEM cells and p24 assays were performed on culture supernatants on days 3, 7, 10, and 14 post-inoculation. Data are expressed as pg/ml of HIV p24 protein in the culture supernatants. The standard curve for the p24 assay is linear from 7.8 pg/ml to 125 pg/ml. HIV p24 concentrations below 7.8 pg/ml are expressed as “<7.8 pg/ml” to indicate sensitivity of the assay, and values above 125 pg/ml are expressed as “>125 pg/ml” since the assay is nonlinear above 125 pg/ml.

[1] = test system: duck hepatitis B virus (DHBV); conditions: 60 minutes, 20° C., Reed and Muench
Description: This model uses primary duck hepatocytes (PDHs) as host (Pugh et al., 1999). We isolated and maintained PDHs from less than one week-old seronegative White Pekin ducklings (Anas dornesticus) with modifications from previous procedures (Berry and Friend, 1969, Seglen. 1976, Pugh and Summers, 1989, Pugh et al., 2000, Tuttleman et al., 1986). Briefly, ducks were euthanized by exposing them to C02 and livers were perfused twice via the atrium of the heart with approximately 200 mL each of two solutions. The first solution consisted of SWIM's S-77 medium (Sigma) supplemented with 0.5 mmol/L EGTA, 2 mmol/L Hepes (pH 7.45) and 50 ug/mL penicillin and streptomycin (Biofluids, Rockville, Md.). The second solution contained SWIM's S-77 medium supplemented with 2.5 mmol/L CaCl2, 0.5 mg of collagenase/mL (type I, Sigma, St. Louis) and 50 ug/mL penicillin and streptomycin. These perfusates were administered at approximately 15 mL/minute using a peristaltic pump and the temperature of the perftisate was adjusted to maintain the liver at 37° C. The liver was removed, minced with scissors and repeatedly mixed with a 25 mL pipette for hepatocyte dispersion into complete L-15 medium (Biofluids, Rockville, Md.) supplemented with 0.05-percent (w/v) sodium bicarbonate (Biofluids), 1 mmol/L glutamine (Biofluids), 20 mmol/L HEPES (Biofluids), 50 ug/mL penicillin and streptomycin (Biofluids), I (g/mL insulin (Sigma, St. Louis), and 10 (moi/L hydrocortisone-hemisuccinate (Sigma). Cells were filtered through sterile gauze, centrifuged at 50×g for 4 minutes, and the resulting cell pellet was washed three times with L-15 medium and resuspended in L-15 medium. 12-well plates were seeded with approximately two-mL of the cell suspension (ca. 10^5 cells). Media on the plated cells were aspirated every two days and replaced with fresh L-15 media.
Serum of four week-old congenitally infected duckling served as the source of virus used in these experiments. Treated and control DHBV spiked red cell samples were serially diluted 10-fold in L-15 medium and one-mL volumes were subsequently inoculated into PDH monolayers in quadruplicate. The infected cultures were incubated at 37° C.+20° C. with 5+1% C02 overnight for virus attachment and entry. The inoculum was then removed, cell monolayers washed once with complete L-15 medium to remove excess red blood cells, and then each well was overlaid with approximately 2-mL of fresh L-15 medium. Infected monolayers were incubated an additional 10-14 days at 37(+20° C. with 5+1% C02, with media changes every 2 days.
We detected the presence of DHB V-infected duck hepatocytes by an IFA. Briefly, the medium from the PDH monolayer was removed by aspiration, and the monolayers washed with agitation for 5-10 minutes with 1-2 mL of phosphate buffered saline (PBS). […]

Substance: paraformaldehyde
- HIV p24 protein in culture supernatants (HIV; exposure time 15 minutes, treated HIV diluted 1:8,000, 10 days post-inoculation): 43.9 pg/mL
- HIV p24 protein in culture supernatants (HIV; exposure time 15 minutes, treated HIV diluted 1:8,000, 14 days post-inoculation): <7.8 pg/mL
- HIV p24 protein in culture supernatants (HIV; exposure time 15 minutes, treated HIV diluted 1:80,000, 3 days post-inoculation): 27.9 pg/mL
- HIV p24 protein in culture supernatants (HIV; exposure time 15 minutes, treated HIV diluted 1:80,000, 7 days post-inoculation): 18.0 pg/mL
- HIV p24 protein in culture supernatants (HIV; exposure time 15 minutes, treated HIV diluted 1:80,000, 10 days post-inoculation): <7.8 pg/mL
- HIV p24 protein in culture supernatants (HIV; exposure time 15 minutes, treated HIV diluted 1:80,000, 14 days post-inoculation): <7.8 pg/mL
- HIV p24 protein in culture supernatants (HIV; exposure time 15 minutes, treated HIV diluted 1:800,000, 3 days post-inoculation): <7.8 pg/mL
- HIV p24 protein in culture supernatants (HIV; exposure time 15 minutes, treated HIV diluted 1:800,000, 7 days post-inoculation): <7.8 pg/mL
- HIV p24 protein in culture supernatants (HIV; exposure time 15 minutes, treated HIV diluted 1:800,000, 10 days post-inoculation): <7.8 pg/mL
- HIV p24 protein in culture supernatants (HIV; exposure time 15 minutes, treated HIV diluted 1:800,000, 14 days post-inoculation): <7.8 pg/mL
- HIV p24 protein in culture supernatants (HIV; exposure time 30 minutes, treated HIV diluted 1:8,000, 3 days post-inoculation): >125 pg/mL
- HIV p24 protein in culture supernatants (HIV; exposure time 30 minutes, treated HIV diluted 1:8,000, 7 days post-inoculation): >125 pg/mL
- HIV p24 protein in culture supernatants (HIV; exposure time 30 minutes, treated HIV diluted 1:8,000, 10 days post-inoculation): 46.2 pg/mL
- HIV p24 protein in culture supernatants (HIV; exposure time 30 minutes, treated HIV diluted 1:8,000, 14 days post-inoculation): <7.8 pg/mL
- HIV p24 protein in culture supernatants (HIV; exposure time 30 minutes, treated HIV diluted 1:80,000, 3 days post-inoculation): 22.6 pg/mL
- HIV p24 protein in culture supernatants (HIV; exposure time 30 minutes, treated HIV diluted 1:80,000, 7 days post-inoculation): 10.3 pg/mL
- HIV p24 protein in culture supernatants (HIV; exposure time 30 minutes, treated HIV diluted 1:80,000, 10 days post-inoculation): <7.8 pg/mL
- HIV p24 protein in culture supernatants (HIV; exposure time 30 minutes, treated HIV diluted 1:80,000, 14 days post-inoculation): <7.8 pg/mL
- HIV p24 protein in culture supernatants (HIV; exposure time 30 minutes, treated HIV diluted 1:800,000, 3 days post-inoculation): <7.8 pg/mL
- HIV p24 protein in culture supernatants (HIV; exposure time 30 minutes, treated HIV diluted 1:800,000, 7 days post-inoculation): <7.8 pg/mL
- HIV p24 protein in culture supernatants (HIV; exposure time 30 minutes, treated HIV diluted 1:800,000, 10 days post-inoculation): <7.8 pg/mL
- HIV p24 protein in culture supernatants (HIV; exposure time 30 minutes, treated HIV diluted 1:800,000, 14 days post-inoculation): <7.8 pg/mL
- HIV p24 protein in culture supernatants (HIV; exposure time 60 minutes, treated HIV diluted 1:8,000, 3 days post-inoculation): >125 pg/mL
- HIV p24 protein in culture supernatants (HIV; exposure time 60 minutes, treated HIV diluted 1:8,000, 7 days post-inoculation): >125 pg/mL
- HIV p24 protein in culture supernatants (HIV; exposure time 60 minutes, treated HIV diluted 1:8,000, 10 days post-inoculation): 87.4 pg/mL
- HIV p24 protein in culture supernatants (HIV; exposure time 60 minutes, treated HIV diluted 1:8,000, 14 days post-inoculation): <7.8 pg/mL
- HIV p24 protein in culture supernatants (HIV; exposure time 60 minutes, treated HIV diluted 1:80,000, 3 days post-inoculation): 59.8 pg/mL
- HIV p24 protein in culture supernatants (HIV; exposure time 60 minutes, treated HIV diluted 1:80,000, 7 days post-inoculation): 36.0 pg/mL
- HIV p24 protein in culture supernatants (HIV; exposure time 60 minutes, treated HIV diluted 1:80,000, 10 days post-inoculation): <7.8 pg/mL
- HIV p24 protein in culture supernatants (HIV; exposure time 60 minutes, treated HIV diluted 1:80,000, 14 days post-inoculation): <7.8 pg/mL
- HIV p24 protein in culture supernatants (HIV; exposure time 60 minutes, treated HIV diluted 1:800,000, 3 days post-inoculation): <7.8 pg/mL
- HIV p24 protein in culture supernatants (HIV; exposure time 60 minutes, treated HIV diluted 1:800,000, 7 days post-inoculation): <7.8 pg/mL
- HIV p24 protein in culture supernatants (HIV; exposure time 60 minutes, treated HIV diluted 1:800,000, 10 days post-inoculation): <7.8 pg/mL
- HIV p24 protein in culture supernatants (HIV; exposure time 60 minutes, treated HIV diluted 1:800,000, 14 days post-inoculation): <7.8 pg/mL
- HIV p24 protein in culture supernatants (HIV; exposure time Overnight, treated HIV diluted 1:8,000, 3 days post-inoculation): >125 pg/mL
- HIV p24 protein in culture supernatants (HIV; exposure time Overnight, treated HIV diluted 1:8,000, 7 days post-inoculation): >125 pg/mL
- HIV p24 protein in culture supernatants (HIV; exposure time Overnight, treated HIV diluted 1:8,000, 10 days post-inoculation): 27.6 pg/mL
- HIV p24 protein in culture supernatants (HIV; exposure time Overnight, treated HIV diluted 1:8,000, 14 days post-inoculation): <7.8 pg/mL
- HIV p24 protein in culture supernatants (HIV; exposure time Overnight, treated HIV diluted 1:80,000, 3 days post-inoculation): 16.3 pg/mL
- HIV p24 protein in culture supernatants (HIV; exposure time Overnight, treated HIV diluted 1:80,000, 7 days post-inoculation): 17.5 pg/mL
- HIV p24 protein in culture supernatants (HIV; exposure time Overnight, treated HIV diluted 1:80,000, 10 days post-inoculation): <7.8 pg/mL
- HIV p24 protein in culture supernatants (HIV; exposure time Overnight, treated HIV diluted 1:80,000, 14 days post-inoculation): <7.8 pg/mL
- HIV p24 protein in culture supernatants (HIV; exposure time Overnight, treated HIV diluted 1:800,000, 3 days post-inoculation): <7.8 pg/mL
- HIV p24 protein in culture supernatants (HIV; exposure time Overnight, treated HIV diluted 1:800,000, 7 days post-inoculation): <7.8 pg/mL
- HIV p24 protein in culture supernatants (HIV; exposure time Overnight, treated HIV diluted 1:800,000, 10 days post-inoculation): <7.8 pg/mL
- HIV p24 protein in culture supernatants (HIV; exposure time Overnight, treated HIV diluted 1:800,000, 14 days post-inoculation): <7.8 pg/mL
- amounts of p24 in the culture supernatants (HIV; treatment of virus with paraformaldehyde, by day 14): non-detectable
- FFFUD50/mL (log10) ([1]; paraformaldehyde column 1): 0 FFFUD50/mL (log10)
- FFFUD50/mL (log10) ([1]; paraformaldehyde column 2): 0 FFFUD50/mL (log10)
- FFFUD50/mL (log10) ([1]; paraformaldehyde column 3): 0 FFFUD50/mL (log10)
- FFFUD50/mL (log10) ([1]; paraformaldehyde column 4): 0 FFFUD50/mL (log10)
